Assay results reported in patent US20260250630A1, “PROTEOMICS-BASED RECEPTOR-LIGAND MATCHING FOR OPTIMIZING STEM CELL REPROGRAMMING” (OKINAWA INSTITUTE OF SCIENCE AND TECHNOLOGY SCHOOL …, priority 2021, published 2026).
“Also recorded” adds a separate entry of the source.

Legend:
[1] = tested on: calyx of Held presynaptic terminals; assay: EPSC recording at the calyx of Held, short-term depression and recovery; format: cell-based, rat
Description: (§1) Wistar rats (postnatal day 13-15) of either sex were killed by decapitation under isoflurane anesthesia. Transverse brainstem slices (175-200 μm in thickness) containing the medial nucleus of the trapezoid body (MNTB) were cut in ice-cold solution containing (in mM): 200 sucrose, 2.5 KCl, 26 NaHCO3, 1.25 NaH2PO4, 6 MgCl2, 10 glucose, 3 myo-inositol, 2 sodium pyruvate, and 0.5 sodium ascorbate (pH 7.4 when bubbled with 95% O2 and 5% CO2, 310-320 mOsm) by using vibroslicer (VT1200S, Leica). Before recording, slices were incubated for 1 h at 37° C. in standard aCSF solution containing (in mM): 125 NaCl, 2 KCl, 26 NaHCO3, 1.25 NaH2PO4, 2 CaCl2), 1 MgCl2, 10 glucose, 3 myo-inositol, 2 sodium pyruvate, and 0.5 sodium ascorbate (pH 7.4 when bubbled with 95% O2 and 5% CO2, 310-320 mOsm), and maintained thereafter at room temperature (24-26° C.). MNTB principal neurons and calyx of Held presynaptic terminals were visually identified using a ×40 water immersion objective attached to an upright microscope (BX51WI, Olympus).
For recording of evoked EPSCs, simultaneous pre- and postsynaptic whole-cell recordings were made from a calyceal nerve terminal and postsynaptic cell. Throughout the experiments, presynaptic recordings were made in current-clamp mode, whereas postsynaptic recordings were made in voltage-clamp mode at a holding potential of −70 mV. Pipette solution for recording of presynaptic action potentials (APs) contained (mM): 110 K-gluconate, 10 L-glutamate, 30 KCl, 10 HEPES, 0.5 EGTA, 12 Na2-phosphocreatine, 3 MgATP, 1 MgCl2, 0.3 Na2GTP (315 mOsm, pH 7.3 adjusted with KOH), and that for postsynaptic recording contained (mM): 110 CsF, 30 CsCl, 10 HEPES, 5 EGTA, 1 MgCl2, 5 QX314-CI (300 mOsm, pH 7.3 adjusted with CsOH). EPSCs were evoked by current injection (0.5-1 nA, 1 ms) into the presynaptic terminal via a recording glass electrode, in the presence of bicuculline methiodide (10 µM) and strychnine hydrochloride (0.5 μM).

[2] = tested on: calyx of Held presynaptic terminals; assay: Membrane capacitance measurement of exo-endocytosis at the calyx of Held; format: cell-based, rat; details: LP-935509 1 or 10 µM in presynaptic terminals
Description: as §1
Membrane capacitance measurement from the calyx of Held presynaptic terminals, in whole-cell configurations, were made at room temperature (RT, 26-27° C.). Data were acquired at a sampling rate of 50 KHz, using an EPC-10 patch-clamp amplifier controlled by PatchMaster software (HEKA) after on-line filtering at 5 KHz. Calyx of Held terminals were voltage-clamped at a holding potential of −80 mV and a sinusoidal voltage command with a peak-to-peak voltage of 60 mV was applied at 1 KHz. Aak1 inhibitor LP935509 (Axon MedChem) was dissolved in DMSO (0.1%), which was also included in pipette solution, and infused from whole-cell pipettes into calyceal terminals by diffusion. […]
Single-pulse step depolarization to +10 mV for 20 ms was used to induce presynaptic QCa. […] The amplitude of exocytic Cm change (ΔCm) was measured as the difference of Cm values between the baseline and those at 450-500 ms after depolarization. […] The half decay time of endocytosis was measured from the midpoint of ΔCm decay.

calyx of Held = assay: Simultaneous pre- and postsynaptic action potential recordings, fidelity of neurotransmission; format: cell-based, rat; details: p<0.01, n=6
Description: as §1
For recording postsynaptic action potentials (APs), simultaneous pre- and postsynaptic whole-cell recordings were made from calyceal terminals and postsynaptic MNTB principal neurons, both in current-clamp mode, in the presence of bicuculline methiodide (10 µM) and strychnine hydrochloride (0.5 μM). […]

[3] = tested on: human ipsc-derived neurons (iN); assay: Spontaneous synaptic currents in iPSC-derived neurons (iN); format: cell-based; details: addition of CNQX
Description: FIG. 14A-14E. The differentiated neurons (iN) in culture are making functional synapses. • A) DIC image of human ipsc-derived neurons (iN) in culture of DIV25.

[4] = from cumulative histograms of EPSC amplitudes

| Compound | recovery from STD (time constants of Ca2+-dependent fast and Ca2+-independent slow components) ([1]; calyx of Held) | short-term depression (STD) of EPSCs ([1]; calyx of Held loaded with LP-935509, 100 Hz train, 0.3 s, compared to controls, p<0.05, n=7) | pool size of readily releasable SVs [1, 4] | release probability [1, 4] | exocytosis (exocytic capacitance change, ΔCm) [2] | presynaptic Ca2+ current charge (QCa) [2] | endocytic capacitance change ([2]; p<0.05, n=6) | transmission fidelity (output/input AP ratio), level declined to (calyx of Held; 1 μM in presynaptic terminals, 100-Hz stimulation, within 40 s) | fidelity of neurotransmission (ratio of postsynaptic APs to presynaptic APs) (calyx of Held; 1 μM) | spontaneous synaptic currents in iN [3] |
| --- | --- | --- | --- | --- | --- | --- | --- | --- | --- | --- |
| COc1ncccc1-c1cnn2ccc(N3CCN(C(=O)OC(C)C)CC3)nc12 [LP-935509] | significantly prolonged | stronger STD | reduced | without affecting | did not indicate a significant reduction; also recorded: remained unchanged | remained unchanged | significantly prolonged | ~ 50% | significantly impaired | – |
| N#Cc1cc2[nH]c(=O)c(=O)[nH]c2cc1[N+](=O)[O-] [CNQX] | – | – | – | – | – | – | – | – | – | abolished |
